# In patent US20260184675A1, “CHIRAL ISOMERIC SULFITE COMPOUND AND APPLICATION THEREOF” (Chengdu Hanova BioSciences Co., Ltd, priority 2024, published 2026):
# Columns and labels:
# eggs of Thrips = test: Effect on hatching of eggs of Thrips, leaf disc method; format: in vivo; details: 100 ppm; for Hatching rate (%): 5 days after insecticide delivery
# Outline: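 Egg-bearing Vicia faba leaf discs (diameter 2.0 cm, wetted filter paper beneath) were counted microscopically for baseline eggs. They were then soaked for 10 seconds in water or in test agent at 100 ppm. After moist incubation in lidded dishes, with controlled temperature and humidity and adequate indirect light, hatched larvae were counted five days post-delivery to judge hatching inhibition.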
# eggs of Aleyrodidae = test: Effect on hatching of eggs of Aleyrodidae, leaf disc method; format: in vivo; details: 10 ppm; for Hatching rate (%), Replicate 1 / Hatching rate (%), Replicate 2 / Hatching rate (%), Replicate 3 / Number of hatched larvae 5 days after insecticide delivery, Replicate 1 / Number of hatched larvae 5 days after insecticide delivery, Replicate 2 / Number of hatched larvae 5 days after insecticide delivery, Replicate 3: Aleyrodidae eggs; for Hatching rate (%), Replicate 1 / Hatching rate (%), Replicate 2 / Hatching rate (%), Replicate 3: 5 days after delivery; for Number of hatched larvae 5 days after insecticide delivery, Replicate 1 / Number of hatched larvae 5 days after insecticide delivery, Replicate 2 / Number of hatched larvae 5 days after insecticide delivery, Replicate 3: leaf disc
# Outline: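 Leaf discs carrying Aleyrodidae eggs were first examined microscopically to record a baseline egg count. They were then dipped for 10 seconds in compound solution at 10 ppm or in clear water, taken out, and incubated with humidity maintained. Five days after delivery, the number of hatched larvae was recorded to assess hatching inhibition.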
# [1] = system: eggs of Spodoptera litura; test: Effect on hatching of eggs of Spodoptera litura, egg piece soaking; format: in vivo; details: 500 ppm; for Hatching rate (%), Replicate 1 / Hatching rate (%), Replicate 2 / Hatching rate (%), Replicate 3 / Number of unhatched larvae 4 days after insecticide delivery, Replicate 1 / Number of unhatched larvae 4 days after insecticide delivery, Replicate 2 / Number of unhatched larvae 4 days after insecticide delivery, Replicate 3: Spodoptera litura eggs; for Hatching rate (%), Replicate 1 / Hatching rate (%), Replicate 2 / Hatching rate (%), Replicate 3: 4 days after delivery; for Number of unhatched larvae 4 days after insecticide delivery, Replicate 1 / Number of unhatched larvae 4 days after insecticide delivery, Replicate 2 / Number of unhatched larvae 4 days after insecticide delivery, Replicate 3: soaked 10 minutes
# Outline: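 Egg pieces of about 60 eggs were soaked 10 min in test agent at 500 ppm, blotted, then held singly at 24±1 °C, 80±10% RH, 12:12 L:D. Hatched and unhatched eggs were counted on day 4 to give hatching rate and control effect; 3 replicates.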
# [2] = system: eggs of Harmonia axyridis; test: Effect on hatching of eggs of Harmonia axyridis, egg card immersion; format: in vivo; details: 100 ppm; for Number of hatched larvae 4 days after insecticide delivery, Replicate 1 / Number of hatched larvae 4 days after insecticide delivery, Replicate 2 / Number of hatched larvae 4 days after insecticide delivery, Replicate 3: Harmonia axyridis egg cards, immersed 30 seconds; for Hatching rate (%), Replicate 1 / Hatching rate (%), Replicate 2 / Hatching rate (%), Replicate 3: Harmonia axyridis eggs, 4 days after delivery
# Outline: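 Egg cards (~20 eggs each) dipped 30 s in 100 ppm insecticide, air dried and kept moist at 27° C; 5 cards per treatment, 3 replicates. Hatching assessed 4 days after treatment against pre-treatment egg counts, and control effect calculated by formula.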
# Magnaporthe grisea = format: cell-based; details: 100 ppm; for Average antifungal rate (%) / Antifungal rate of Magnaporthe grisea (%), Replicate 1 / Antifungal rate of Magnaporthe grisea (%), Replicate 2 / Antifungal rate of Magnaporthe grisea (%), Replicate 3: 96-well plate; for Average antifungal rate (%): average of 3 replicates
# [3] = Replicate 1, listed as 1′-(S, R)
# [4] = Replicate 2, listed as 1′-(S, R)
# [5] = Replicate 3, listed as 1′-(S, R)
# [6] = Replicate 1, listed as 1′-(S, S)
# [7] = Replicate 2, listed as 1′-(S, S)
# [8] = Replicate 3, listed as 1′-(S, S)
# [9] = Replicate 1, listed as 19-(R, R)
# [10] = Replicate 2, listed as 19-(R, R)
# [11] = Replicate 3, listed as 19-(R, R)
compound,measurement,setting,value
"CC(COc1ccc(Cl)cc1Cl)OS(=O)OCCF [1′-(S,R)]",inhibitory activity on the hatching of eggs of Thrips (in words),eggs of Thrips,strong inhibitory activities
same,Hatching rate (%),eggs of Thrips; [3],0.00%
same,Hatching rate (%),eggs of Thrips; [4],0.00%
same,Hatching rate (%),eggs of Thrips; [5],0.00%
same,Number of hatched larvae 5 days after insecticide delivery,eggs of Thrips; [3],0
same,Number of hatched larvae 5 days after insecticide delivery,eggs of Thrips; [4],0
same,Number of hatched larvae 5 days after insecticide delivery,eggs of Thrips; [5],0
same,inhibitory activity on the hatching of eggs of Aleyrodidae (in words),eggs of Aleyrodidae,strong inhibitory activities
same,"Hatching rate (%), Replicate 1","eggs of Aleyrodidae; listed as 1′-(S, R)",0.00%
same,"Hatching rate (%), Replicate 2","eggs of Aleyrodidae; listed as 1′-(S, R)",0.00%
same,"Hatching rate (%), Replicate 3","eggs of Aleyrodidae; listed as 1′-(S, R)",0.00%
same,"Number of hatched larvae 5 days after insecticide delivery, Replicate 1","eggs of Aleyrodidae; listed as 1′-(S, R)",0
same,"Number of hatched larvae 5 days after insecticide delivery, Replicate 2","eggs of Aleyrodidae; listed as 1′-(S, R)",0
same,"Number of hatched larvae 5 days after insecticide delivery, Replicate 3","eggs of Aleyrodidae; listed as 1′-(S, R)",0
same,inhibitory activity on the hatching of eggs of Spodoptera litura (in words),[1],good inhibitory activities
same,"Hatching rate (%), Replicate 1","[1]; listed as 1′-(S, R)",27.87%
same,"Hatching rate (%), Replicate 2","[1]; listed as 1′-(S, R)",26.98%
same,"Hatching rate (%), Replicate 3","[1]; listed as 1′-(S, R)",21.05%
same,"Number of unhatched larvae 4 days after insecticide delivery, Replicate 1","[1]; listed as 1′-(S, R)",44
same,"Number of unhatched larvae 4 days after insecticide delivery, Replicate 2","[1]; listed as 1′-(S, R)",46
same,"Number of unhatched larvae 4 days after insecticide delivery, Replicate 3","[1]; listed as 1′-(S, R)",45
same,inhibitory activity on the hatching of eggs of Harmonia axyridis (in words),[2],strong inhibitory activities
same,"Number of hatched larvae 4 days after insecticide delivery, Replicate 1","[2]; listed as 1′-(S, R)",0
same,"Number of hatched larvae 4 days after insecticide delivery, Replicate 2","[2]; listed as 1′-(S, R)",0
same,"Number of hatched larvae 4 days after insecticide delivery, Replicate 3","[2]; listed as 1′-(S, R)",0
same,"Hatching rate (%), Replicate 1","[2]; listed as 1′-(S, R)",0.00%
same,"Hatching rate (%), Replicate 2","[2]; listed as 1′-(S, R)",0.00%
same,"Hatching rate (%), Replicate 3","[2]; listed as 1′-(S, R)",0.00%
same,inhibitory rate against Magnaporthe grisea (in words),Magnaporthe grisea,strong inhibitory rate
same,Average antifungal rate (%),Magnaporthe grisea,99.22%
same,"Antifungal rate of Magnaporthe grisea (%), Replicate 1",Magnaporthe grisea,95.80%
same,"Antifungal rate of Magnaporthe grisea (%), Replicate 2",Magnaporthe grisea,102.01%
same,"Antifungal rate of Magnaporthe grisea (%), Replicate 3",Magnaporthe grisea,99.85%
"CC(COc1ccc(Cl)cc1Cl)OS(=O)OCCF [1′-(S,S)]",Hatching rate (%),eggs of Thrips; [6],14.10%
same,Hatching rate (%),eggs of Thrips; [7],14.63%
same,Hatching rate (%),eggs of Thrips; [8],16.04%
same,Number of hatched larvae 5 days after insecticide delivery,eggs of Thrips; [6],11
same,Number of hatched larvae 5 days after insecticide delivery,eggs of Thrips; [7],18
same,Number of hatched larvae 5 days after insecticide delivery,eggs of Thrips; [8],17
same,"Hatching rate (%), Replicate 1","eggs of Aleyrodidae; listed as 1′-(S, S)",15.15%
same,"Hatching rate (%), Replicate 2","eggs of Aleyrodidae; listed as 1′-(S, S)",16.19%
same,"Hatching rate (%), Replicate 3","eggs of Aleyrodidae; listed as 1′-(S, S)",15.38%
same,"Number of hatched larvae 5 days after insecticide delivery, Replicate 1","eggs of Aleyrodidae; listed as 1′-(S, S)",20
same,"Number of hatched larvae 5 days after insecticide delivery, Replicate 2","eggs of Aleyrodidae; listed as 1′-(S, S)",17
same,"Number of hatched larvae 5 days after insecticide delivery, Replicate 3","eggs of Aleyrodidae; listed as 1′-(S, S)",12
same,"Hatching rate (%), Replicate 1","[1]; listed as 1′-(S, S)",64.52%
same,"Hatching rate (%), Replicate 2","[1]; listed as 1′-(S, S)",63.79%
same,"Hatching rate (%), Replicate 3","[1]; listed as 1′-(S, S)",66.07%
same,"Number of unhatched larvae 4 days after insecticide delivery, Replicate 1","[1]; listed as 1′-(S, S)",22
same,"Number of unhatched larvae 4 days after insecticide delivery, Replicate 2","[1]; listed as 1′-(S, S)",21
same,"Number of unhatched larvae 4 days after insecticide delivery, Replicate 3","[1]; listed as 1′-(S, S)",19
same,"Number of hatched larvae 4 days after insecticide delivery, Replicate 1","[2]; listed as 1′-(S, S)",18
same,"Number of hatched larvae 4 days after insecticide delivery, Replicate 2","[2]; listed as 1′-(S, S)",19
same,"Number of hatched larvae 4 days after insecticide delivery, Replicate 3","[2]; listed as 1′-(S, S)",21
same,"Hatching rate (%), Replicate 1","[2]; listed as 1′-(S, S)",19.57%
same,"Hatching rate (%), Replicate 2","[2]; listed as 1′-(S, S)",19.39%
same,"Hatching rate (%), Replicate 3","[2]; listed as 1′-(S, S)",18.69%
same,inhibitory rate against Magnaporthe grisea (in words),Magnaporthe grisea,strong inhibitory rate
same,Average antifungal rate (%),Magnaporthe grisea,81.44%
same,"Antifungal rate of Magnaporthe grisea (%), Replicate 1",Magnaporthe grisea,84.82%
same,"Antifungal rate of Magnaporthe grisea (%), Replicate 2",Magnaporthe grisea,83.06%
same,"Antifungal rate of Magnaporthe grisea (%), Replicate 3",Magnaporthe grisea,76.44%
"CCC(COc1ccc(Cl)cc1Cl)OS(=O)OCCF [19-(R,R)]",Hatching rate (%),eggs of Thrips; [9],12.63%
same,Hatching rate (%),eggs of Thrips; [10],13.46%
same,Hatching rate (%),eggs of Thrips; [11],13.04%
same,Number of hatched larvae 5 days after insecticide delivery,eggs of Thrips; [9],12
same,Number of hatched larvae 5 days after insecticide delivery,eggs of Thrips; [10],14
same,Number of hatched larvae 5 days after insecticide delivery,eggs of Thrips; [11],15
same,"Hatching rate (%), Replicate 1","eggs of Aleyrodidae; listed as 19-(R, R)",11.96%
same,"Hatching rate (%), Replicate 2","eggs of Aleyrodidae; listed as 19-(R, R)",10.20%
same,"Hatching rate (%), Replicate 3","eggs of Aleyrodidae; listed as 19-(R, R)",11.20%
same,"Number of hatched larvae 5 days after insecticide delivery, Replicate 1","eggs of Aleyrodidae; listed as 19-(R, R)",11
same,"Number of hatched larvae 5 days after insecticide delivery, Replicate 2","eggs of Aleyrodidae; listed as 19-(R, R)",10
same,"Number of hatched larvae 5 days after insecticide delivery, Replicate 3","eggs of Aleyrodidae; listed as 19-(R, R)",14
same,"Hatching rate (%), Replicate 1","[1]; listed as 19-(R, R)",50.85%
same,"Hatching rate (%), Replicate 2","[1]; listed as 19-(R, R)",51.61%
same,"Hatching rate (%), Replicate 3","[1]; listed as 19-(R, R)",50.79%
same,"Number of unhatched larvae 4 days after insecticide delivery, Replicate 1","[1]; listed as 19-(R, R)",29
same,"Number of unhatched larvae 4 days after insecticide delivery, Replicate 2","[1]; listed as 19-(R, R)",30
same,"Number of unhatched larvae 4 days after insecticide delivery, Replicate 3","[1]; listed as 19-(R, R)",31
same,"Number of hatched larvae 4 days after insecticide delivery, Replicate 1","[2]; listed as 19-(R, R)",14
same,"Number of hatched larvae 4 days after insecticide delivery, Replicate 2","[2]; listed as 19-(R, R)",15
same,"Number of hatched larvae 4 days after insecticide delivery, Replicate 3","[2]; listed as 19-(R, R)",14
same,"Hatching rate (%), Replicate 1","[2]; listed as 19-(R, R)",14.43%
same,"Hatching rate (%), Replicate 2","[2]; listed as 19-(R, R)",14.42%
same,"Hatching rate (%), Replicate 3","[2]; listed as 19-(R, R)",13.73%
same,inhibitory rate against Magnaporthe grisea (in words),Magnaporthe grisea,strong inhibitory rate
same,Average antifungal rate (%),Magnaporthe grisea,82.77%
same,"Antifungal rate of Magnaporthe grisea (%), Replicate 1",Magnaporthe grisea,81.29%
same,"Antifungal rate of Magnaporthe grisea (%), Replicate 2",Magnaporthe grisea,83.56%
same,"Antifungal rate of Magnaporthe grisea (%), Replicate 3",Magnaporthe grisea,83.45%
